{
  "source": "patent US20070087988A1",
  "about": "“Hematopoietic progenitor kinase 1 for modulation of an immune response” (New York University, priority 2005, published 2007)",
  "system": "tyrosine phosphorylation",
  "assay": "Anti-phosphotyrosine immunoblotting of Jurkat lysates and HPK1 immunoprecipitates",
  "assay_type": "cell-based, human",
  "details": "10 pM PGE2",
  "description": "Cells were lysed in a buffer containing 1% Nonidet P-40 (NP-40) and 50 mM Tris, pH 7.6, 150 mM NaCl, 1 mM […], 10 mM NaF, 10 mM sodium pyrophosphate, 10 μg/ml each of aprotinin and leupeptin, and 2 mM phenylmethylsulfonyl fluoride (PMSF). The lysates were pre-cleared with protein A-Sepharose™ and subsequently, proteins were immunoprecipitated with either 2 μg of anti-Crk antibody or an equal amount of normal rabbit Ig by incubation at 4° C. for two hours. The beads were washed with 0.1% NP-40 in immunoprecipitation wash buffer (150 mM NaCl, 20 mM HEPES, pH 7.4, 10% glycerol, 1 mM […], 5 mM NaF, and 10 μg/ml each of aprotinin and leupeptin), and the bead-bound proteins were separated by SDS-PAGE. The proteins were transferred to a polyvinylidene fluoride (PVDF) membrane, immunoblotted with the indicated antibodies and developed by the enhanced chemiluminescence (ECL) system (Amersham Corp., Arlington Heights, Ill.).\nIt has been reported that binding of PGE2 to its GPCR leads to rapid activation of HPK1 kinase activity (Sawasdikosol et al., 2003, Blood 101:3687). […] First, it was assessed whether PGE2 stimulation would induce general tyrosine phosphorylation in the Jurkat T cell line was examined. […]",
  "data": [
    {"compound": "CCCCC[C@H](O)/C=C/[C@H]1[C@H](O)CC(=O)[C@@H]1C/C=C\\CCCC(=O)O", "note": "[PGE2, prostaglandin E2]", "values": [
      {"measurement": "global tyrosine phosphorylation level", "setting": "Jurkat whole cell lysates", "result": "no detectable change"},
      {"measurement": "tyrosine phosphorylation of HPK1", "setting": "immunoprecipitated HPK1, Jurkat", "result": "did not induce detectable tyrosine phosphorylation"}
    ]}
  ]
}
